In patent US20230295182A1, “SPIRO DERIVATIVES OF ALPHA-D-GALACTOPYRANOSIDES” (Idorsia Pharmaceuticals Ltd, priority 2020, published 2023):
Read-outs that look alike come from different tables or passages of the source.

Assays:
human Gal-3 (hGal-3) = human Gal-3 (hGal-3) (Homo sapiens (Human), UniProt P17931); assay: Competitive binding assay: biotinylated hGal-3 to microplate-adsorbed asialofetuin (ASF); conditions: Activity on hGal-3; binding to ASF-coated plates, 3 hours at 4° C.; mean values
Procedure: Evaluation of Compound Inhibitory Activity (IC50)
The inhibitory activity of compounds is determined in competitive binding assays. This spectrophotometric assay measures the binding of biotinylated human Gal-3 (hGal-3) or human Gal-1 (hGal-1), respectively, to a microplate-adsorbed glycoprotein, asialofetuin (ASF) (Proc Natl Acad Sci USA. 2013 Mar. 26; 110(13):5052-7.). Alternatively, and preferably, a human Gal-1 version in which all six cysteines are substituted by serines may be used.
Briefly, compounds are serially diluted in DMSO (working dilutions). ASF-coated 384 well plates are supplemented with 22.8 μL/well of biotinylated hGal-3 or hGal-1 in assay buffer (i.e. 300-1000 ng/mL biotinylated hGal-3 or hGal-1) to which 1.2 µL of compound working dilutions are added and mixed.
Plates are incubated for 3 hours at 4° C., then washed with cold assay buffer (3×50 uL), incubated for 1 hour with 25 μL/well of a streptavidin-peroxidase solution (diluted in assay buffer to 80 ng/mL) at 4° C., followed by further washing steps with assay buffer (3×50 uL). Finally, 25 µL/well of ABTS substrate is added.
The calculated IC50 values may fluctuate depending on the daily assay performance. Fluctuations of this kind are known to those skilled in the art. IC50 values from several measurements are given as mean values.

human Gal-1 (hGal-1) = human Gal-1 (hGal-1) (Homo sapiens, UniProt P09382); assay: Competitive binding assay: biotinylated hGal-1 to microplate-adsorbed asialofetuin (ASF)
Procedure: Evaluation of Compound Inhibitory Activity (IC50) The inhibitory activity of compounds is determined in competitive binding assays. […] Alternatively, and preferably, a human Gal-1 version in which all six cysteines are substituted by serines may be used. Briefly, compounds are serially diluted in DMSO (working dilutions). […] Plates are incubated for 3 hours at 4° C., then washed with cold assay buffer (3×50 uL), incubated for 1 hour with 25 μL/well of a streptavidin-peroxidase solution (diluted in assay buffer to 80 ng/mL) at 4° C., followed by further washing steps with assay buffer (3×50 uL). Finally, 25 µL/well of ABTS substrate is added. […] The calculated IC50 values may fluctuate depending on the daily assay performance. Fluctuations of this kind are known to those skilled in the art. IC50 values from several measurements are given as mean values.

[1] = Activities on hGal-1; binding to ASF-coated plates, 3 hours at 4° C.; mean values; read-out: Gal-1 IC50

Chain of human Gal-3 (hGal-3) (P17931 whole entry): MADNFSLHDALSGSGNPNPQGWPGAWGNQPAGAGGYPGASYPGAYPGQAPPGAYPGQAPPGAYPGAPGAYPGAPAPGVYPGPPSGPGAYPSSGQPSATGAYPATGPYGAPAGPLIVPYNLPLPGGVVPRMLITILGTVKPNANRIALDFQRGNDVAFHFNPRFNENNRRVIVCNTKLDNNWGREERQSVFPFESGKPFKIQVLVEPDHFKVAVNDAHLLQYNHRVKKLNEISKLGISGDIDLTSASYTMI
Chain of human Gal-1 (hGal-1) (P09382 2-135 limits assumed): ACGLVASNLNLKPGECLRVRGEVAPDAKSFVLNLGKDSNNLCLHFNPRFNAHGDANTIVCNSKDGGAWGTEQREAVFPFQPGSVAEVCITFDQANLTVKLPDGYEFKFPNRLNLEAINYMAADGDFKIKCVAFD

| Compound | IC50 (human Gal-3 (hGal-3)) [nM] | IC50 (human Gal-1 (hGal-1); [1]) [nM] | IC50 (human Gal-1 (hGal-1); read-out: Gal-1 IC50; Activities on hGal-1; binding to ASF-coated plates, 3 hours at 4° C.; mean values) [nM] |
| --- | --- | --- | --- |
| CO[C@@H]1[C@@H](n2cc(-c3ccc(C)c(F)c3F)nn2)[C@@H](O)[C@@H](CO)O[C@@H]1CC1=NOC2(CCCN(C(=O)OC(C)(C)C)CC2)C1 (mixture of isomers) [Example 1.75, tert-butyl (RS)-3-(((2R,3R,4S,5R,6R)-4-(4-(2,3-difluoro-4-methylphenyl)-1H-1,2,3-triazol-1-yl)-5-hydroxy-6-(hydroxymethyl)-3-methoxytetrahydro-2H-pyran-2-yl)methyl)-1-oxa-2,8-diazaspiro[4.6]undec-2-ene-8-carboxylate] | 160 | 8200 | – |
| CO[C@@H]1[C@@H](n2cc(-c3ccc(C)c(F)c3F)nn2)[C@@H](O)[C@@H](CO)O[C@@H]1CC1=NOC2(CCC(=O)N(C)CC2)C1 (mixture of isomers) [Example 1.77, (RS)-3-(((2R,3R,4S,5R,6R)-4-(4-(2,3-difluoro-4-methylphenyl)-1H-1,2,3-triazol-1-yl)-5-hydroxy-6-(hydroxymethyl)-3-methoxytetrahydro-2H-pyran-2-yl)methyl)-8-methyl-1-oxa-2,8-diazaspiro[4.6]undec-2-en-9-one] | 100 | 4800 | – |
| CO[C@@H]1[C@@H](n2cc(-c3ccc(Cl)c(F)c3F)nn2)[C@@H](O)[C@@H](CO)O[C@@H]1CC1=NOC2(C1)C[C@@H](C(=O)O)N(C(=O)OC(C)(C)C)C2 (mixture of isomers) [Example 1.78, (5RS,8S)-7-(tert-butoxycarbonyl)-3-(((2R,3R,4S,5R,6R)-4-(4-(4-chloro-2,3-difluorophenyl)-1H-1,2,3-triazol-1-yl)-5-hydroxy-6-(hydroxymethyl)-3-methoxytetrahydro-2H-pyran-2-yl)methyl)-1-oxa-2,7-diazaspiro[4.4]non-2-ene-8-carboxylic acid] | 270 | 12000 | – |
| CO[C@@H]1[C@@H](n2cc(-c3ccc(Cl)c(F)c3F)nn2)[C@@H](O)[C@@H](CO)O[C@@H]1CC1=NOC2(CCN(C(=O)OC(C)(C)C)C2)C1 (mixture of isomers) [Example 1.79, tert-butyl (RS)-3-(((2R,3R,4S,5R,6R)-4-(4-(4-chloro-2,3-difluorophenyl)-1H-1,2,3-triazol-1-yl)-5-hydroxy-6-(hydroxymethyl)-3-methoxytetrahydro-2H-pyran-2-yl)methyl)-1-oxa-2,7-diazaspiro[4.4]non-2-ene-7-carboxylate] | 490 | 4800 | – |
| CO[C@@H]1[C@@H](n2cc(-c3ccc(C)c(F)c3F)nn2)[C@@H](O)[C@@H](CO)O[C@@H]1CC1=NOC2(CCNC(=O)CC2)C1 (mixture of isomers) [Example 1.76] | 110 | 2700 | – |
| CC(=O)O[C@@H]1[C@@H](n2cc(-c3ccc(C)c(F)c3F)nn2)[C@@H](O)[C@@H](CO)O[C@@H]1CC1=NOC2(CCOCC2)C1 [Example 1.01, (2R,3R,4S,5R,6R)-2-((1,8-dioxa-2-azaspiro[4.5]dec-2-en-3-yl)methyl)-4-(4-(2,3-difluoro-4-methylphenyl)-1H-1,2,3-triazol-1-yl)-5-hydroxy-6-(hydroxymethyl)tetrahydro-2H-pyran-3-yl acetate] | 61 | 4200 | – |
| Cc1ccc(-c2cn([C@H]3[C@@H](O)[C@@H](CO)O[C@H](CC4=NOC5(CCOCC5)C4)[C@@H]3O)nn2)c(F)c1F [Example 1.02, (2R,3R,4R,5R,6R)-2-((1,8-dioxa-2-azaspiro[4.5]dec-2-en-3-yl)methyl)-4-(4-(2,3-difluoro-4-methylphenyl)-1H-1,2,3-triazol-1-yl)-6-(hydroxymethyl)tetrahydro-2H-pyran-3,5-diol] | 84 | 5200 | – |
| CC(=O)O[C@@H]1[C@@H](n2cc(-c3ccc(C)c(F)c3F)nn2)[C@@H](O)[C@@H](CO)O[C@@H]1CC1=NOC2(CCC(F)(F)CC2)C1 [Example 1.03, (2R,3R,4S,5R,6R)-2-((8,8-difluoro-1-oxa-2-azaspiro[4.5]dec-2-en-3-yl)methyl)-4-(4-(2,3-difluoro-4-methylphenyl)-1H-1,2,3-triazol-1-yl)-5-hydroxy-6-(hydroxymethyl)tetrahydro-2H-pyran-3-yl acetate] | 79 | > 100000 | – |
| Cc1ccc(-c2cn([C@H]3[C@@H](O)[C@@H](CO)O[C@H](CC4=NOC5(CCC(F)(F)CC5)C4)[C@@H]3O)nn2)c(F)c1F [Example 1.04, (2R,3R,4R,5R,6R)-2-((8,8-difluoro-1-oxa-2-azaspiro[4.5]dec-2-en-3-yl)methyl)-4-(4-(2,3-difluoro-4-methylphenyl)-1H-1,2,3-triazol-1-yl)-6-(hydroxymethyl)tetrahydro-2H-pyran-3,5-diol] | 170 | 10400 | – |
| OC[C@H]1O[C@H](CC2=NOC3(CCCCC3)C2)[C@H](O)[C@@H](n2cc(-c3cc(F)c(F)c(F)c3)nn2)[C@H]1O [Example 1.05, (2R,3R,4R,5R,6R)-2-((1-oxa-2-azaspiro[4.5]dec-2-en-3-yl)methyl)-6-(hydroxymethyl)-4-(4-(3,4,5-trifluorophenyl)-1H-1,2,3-triazol-1-yl)tetrahydro-2H-pyran-3,5-diol] | 280 | – | 2200 |
| CO[C@@H]1[C@@H](n2cc(-c3cc(F)c(F)c(F)c3)nn2)[C@@H](O)[C@@H](CO)O[C@@H]1CC1=NOC2(CCN(C(=O)OC(C)(C)C)CC2)C1 [Example 1.06, tert-butyl 3-(((2R,3R,4S,5R,6R)-5-hydroxy-6-(hydroxymethyl)-3-methoxy-4-(4-(3,4,5-trifluorophenyl)-1H-1,2,3-triazol-1-yl)tetrahydro-2H-pyran-2-yl)methyl)-1-oxa-2,8-diazaspiro[4.5]dec-2-ene-8-carboxylate] | 340 | 4200 | – |
| CO[C@@H]1[C@@H](n2cc(-c3cc(F)c(F)c(F)c3)nn2)[C@@H](O)[C@@H](CO)O[C@@H]1CC1=NOC2(CCNCC2)C1 [Example 1.07, (2R,3R,4S,5R,6R)-6-((1-oxa-2,8-diazaspiro[4.5]dec-2-en-3-yl)methyl)-2-(hydroxymethyl)-5-methoxy-4-(4-(3,4,5-trifluorophenyl)-1H-1,2,3-triazol-1-yl)tetrahydro-2H-pyran-3-ol] | 320 | 5700 | – |
| CO[C@@H]1[C@@H](n2cc(-c3cc(F)c(F)c(F)c3)nn2)[C@@H](O)[C@@H](CO)O[C@@H]1CC1=NOC2(CCC(C)CC2)C1 (stereo partly drawn) [Example 1.30, (2R,3R,4S,5R,6R)-2-(hydroxymethyl)-5-methoxy-6-((8-methyl-1-oxa-2-azaspiro[4.5]dec-2-en-3-yl)methyl)-4-(4-(3,4,5-trifluorophenyl)-1H-1,2,3-triazol-1-yl)tetrahydro-2H-pyran-3-ol] | – | 3100 | – |
| OC[C@H]1O[C@H](CC2=NOC3(CCCCC3)C2)[C@H](OCC(F)F)[C@@H](n2cc(-c3cc(F)c(F)c(F)c3)nn2)[C@H]1O [Example 1.67, (2R,3R,4S,5R,6R)-6-((1-oxa-2-azaspiro[4.5]dec-2-en-3-yl)methyl)-5-(2,2-difluoroethoxy)-2-(hydroxymethyl)-4-(4-(3,4,5-trifluorophenyl)-1H-1,2,3-triazol-1-yl)tetrahydro-2H-pyran-3-ol] | – | 2900 | – |
| CO[C@@H]1[C@@H](n2cc(-c3ccc(C)c(F)c3F)nn2)[C@@H](O)[C@@H](CO)O[C@@H]1CN1CC2(CCCCC2)NC1=O [Example 4.01, 3-(((2R,3R,4S,5R,6R)-4-(4-(2,3-difluoro-4-methylphenyl)-1H-1,2,3-triazol-1-yl)-5-hydroxy-6-(hydroxymethyl)-3-methoxytetrahydro-2H-pyran-2-yl)methyl)-1,3-diazaspiro[4.5]decan-2-one] | – | 1300 | – |
